Experimental data: patent EP4696688A1, “BENZO-FUSED RING COMPOUND INHIBITOR, AND PREPARATION METHOD THEREFOR AND USE THEREOF” (Shanghai Hansoh Biomedical Co., Ltd., priority 2023, dated 2024)
Read-outs that look alike come from different tables or passages of the source. Blank lines part the entries; values can stand above or below the molecule they belong to.

Experiments:
human CYP11B1 = target: T1, human CYP11B1 (Homo sapiens, UniProt P15538); assay: G-402 cell enzyme experiment, CYP11B1 (cortisol product, HTRF), selectivity versus CYP11B2; format: cell-based; conditions: human selective factor: ratio of CYP11B1 EC50 to CYP11B2 EC50; G-402 cells
T1 construct: The main elements of an expression plasmid include ORF of human CYP11B1 or human CYP11B2; expressed in transfected cells
T1 sequence (P15538 25-503): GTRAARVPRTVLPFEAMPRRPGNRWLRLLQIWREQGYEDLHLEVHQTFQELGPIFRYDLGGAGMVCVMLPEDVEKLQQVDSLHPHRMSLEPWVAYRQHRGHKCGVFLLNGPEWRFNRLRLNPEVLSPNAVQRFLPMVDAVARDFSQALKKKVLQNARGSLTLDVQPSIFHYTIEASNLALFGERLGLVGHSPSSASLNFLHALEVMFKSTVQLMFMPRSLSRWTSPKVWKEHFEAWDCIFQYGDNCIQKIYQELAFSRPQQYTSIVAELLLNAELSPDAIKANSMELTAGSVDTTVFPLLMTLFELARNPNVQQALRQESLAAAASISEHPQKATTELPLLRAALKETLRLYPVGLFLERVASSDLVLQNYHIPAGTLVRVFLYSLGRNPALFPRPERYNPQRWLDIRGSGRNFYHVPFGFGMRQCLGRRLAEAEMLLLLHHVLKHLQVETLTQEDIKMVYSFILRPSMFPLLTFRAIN
Text: (§1) G-402 cell line was used as host cells to express (by transient or stable transfection) an enzyme of the human CYP11 family. Specifically, G-402 cell lines stably expressing human CYP11B1 and human CYP11B2 were established respectively. […] Therefore, the G-402 cell line is very suitable as a host cell for the ectopic expression of an enzyme of the CYP11 family.
(§2) The G-402 cell line, originally derived from renal myoblastoma, can be obtained from ATCC (CRL-1440). The main elements of an expression plasmid include ORF of human CYP11B1 or human CYP11B2, a suitable promoter (CMV promoter), and a suitable resistance marker (neomycin). The expression plasmid was transfected into G-402 cells by standard technology, and a specific antibiotic was then given for screening. The activity of the enzyme expressed by the screened monoclonal cells was assessed by 11-deoxycorticosterone (substrate of CYP11B2) and 11-deoxycortisol (substrate of CYP11B1).
(§3) The G-402 cells expressing CYP11 plasmid, as established in the above solution, were cultured in McCoy's 5a Modified Medium (ATCC Catalog No. 30-2007) containing 10% FCS and 400 µg/ml G418 in an incubator at 37°C and 5% CO2. A cell enzyme experiment was carried out using DMEM/F12 medium containing 2.5% charcoal-treated FBS and an appropriate concentration of a substrate (1 µM 11-deoxycorticosterone or 1 µM 11-deoxycortisol). In order to detect the activity of the enzyme in the cells, the cells were plated in a 96-well plate and incubated for 16 h. The supernatant was then transferred and analyzed for the concentration of the expected product (the product of CYP11B2: aldosterone; the product of CYP11B1: cortisol). The concentrations of these products were determined by an HTRF experiment of CisBio.
(§4) In the cell enzyme experiment, the inhibitory effect of the test compound on the generated product can reflect the inhibitory effect thereof on the enzyme. The dose-dependent inhibition of the enzyme activity by the compound was calculated by plotting the concentration of the test compound (x axis) versus the measured product level (y axis). Then, the original data was fitted to a 4-parameter sigmoidal function (Morgan-Mercer-Flodin, MMF model) by least square method: y = (AB + Cx^D) / (B + x^D) in which A is the maximum y value, B is the EC50 determined by XLFit, C is the minimum y value, and D is the slope value. The maximum value A corresponds to the amount of the product detected without an inhibitor, and C corresponds to the amount of the product detected in the G402 cells expressing an empty plasmid.
(§5) The EC50 value of the compound of the present invention was determined by the above G-402 experiment system. The activity of the CYP11B2 enzyme was determined under the conditions of 1 µM 11-deoxycorticosterone and a variable amount of the inhibitor, and the activity of the CYP11B1 enzyme was determined under the conditions of 1 µM 11-deoxycortisol and a variable amount of the inhibitor.

[1] = Pharmacokinetic determination in rats; format: in vivo; conditions: rat, male SD rats, plasma, oral administration (PO) 5 mg/kg; for MRT inf: read-out: MRT0-∞
Description: SD rats were used as test animals to study the pharmacokinetic behavior of the compounds of the present invention in rats (plasma) after oral administration.
3 SD rats per group, male.
Formulation of drug for oral administration: 0.5% CMC-Na (1% Tween 80)
5 g of sodium carboxymethyl cellulose (CMC-Na, viscosity: 800-1200 Cps) was weighed and dissolved in 1000 mL of purified water, and 10 g of Tween 80 was added. These materials were uniformly mixed to form a clear solution.
The example compounds were weighed and dissolved in the solution and the mixture was shaken well and ultrasonicated for 15 min to obtain a colorless clear solution with a concentration of 0.5 mg/mL. Formulation of drug for intravenous administration: 5% DMSO + 10% Solutol HS15 + 85% PBS
After overnight fasting, 3 male SD rats per group were administered orally (PO) at a dose of 5 mg/kg with an administration volume of 10 mL/kg. […]
0.2 mL of blood was collected from the jugular vein of the experimental animals before administration and at 0.25 h, 0.5 h, 1.0 h, 2.0 h, 4.0 h, 6.0 h, 8.0 h, and 24.0 h after administration and placed in an EDTA-2K test tube, and the test tube was centrifuged at 8000 rpm for 6 min at 4°C to separate the plasma, which was stored at -80°C; and the animals were fed 4 h after administration.
3 Experimental results: The final determination results were obtained by using LCMS/MS method.

human CYP11B2 = target: T2, human CYP11B2 (Homo sapiens, UniProt P19099); assay: G-402 cell enzyme experiment, CYP11B2 (aldosterone product, HTRF); format: cell-based; conditions: G-402 cells stably expressing human CYP11B2, 1 µM 11-deoxycorticosterone, 16 h
T2 construct: The main elements of an expression plasmid include ORF of human CYP11B1 or human CYP11B2; expressed in transfected cells
T2 sequence (P19099 25-503): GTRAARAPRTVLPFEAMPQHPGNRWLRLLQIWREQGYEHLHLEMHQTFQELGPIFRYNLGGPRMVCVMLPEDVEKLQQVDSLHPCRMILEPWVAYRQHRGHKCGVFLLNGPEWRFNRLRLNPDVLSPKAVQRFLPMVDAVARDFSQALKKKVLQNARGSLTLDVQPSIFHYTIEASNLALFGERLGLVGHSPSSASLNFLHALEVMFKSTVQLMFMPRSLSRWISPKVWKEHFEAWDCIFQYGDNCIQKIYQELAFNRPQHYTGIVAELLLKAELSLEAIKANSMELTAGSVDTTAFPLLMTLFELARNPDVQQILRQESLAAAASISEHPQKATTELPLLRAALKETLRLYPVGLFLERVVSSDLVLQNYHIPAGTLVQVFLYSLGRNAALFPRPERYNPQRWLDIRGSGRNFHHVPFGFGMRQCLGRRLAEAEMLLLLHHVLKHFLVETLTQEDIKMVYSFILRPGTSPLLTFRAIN
Text: as §1, §2, §3, §4, §5

Molecule: 6-(5-(2-ethoxyquinolin-6-yl)pyridin-3-yl)-2,6-diazaspiro[3.3]heptan-2-yl)(1-(methyl-d3)-1H-pyrazol-4-yl)methanone [Example 42]
- hsF (human CYP11B1): 393x

Molecule: CCC(=O)N[C@@H]1CCCc2c(-c3ccc4c(c3)COC(=O)N4C)cncc21 [Example 1-A]
- AUC(0-inf) [1]: 27700 ng·h/mL
- AUC(0-t) [1]: 27600 ng·h/mL
- Cmax [1]: 6330 ng/mL
- Tmax [1]: 1 h
- half-life [1]: 2.6 h
- MRT inf [1]: 3.7 h
- hsF (human CYP11B1): 144x

Molecule: CN1C(=O)OCc2cc(-c3cncc(N4CC5(CN(C(=O)c6cnn(C)c6)C5)C4)c3)ccc21 [Example 5, 1-Methyl-6-(5-(6-(1-methyl-1H-pyrazole-4-carbonyl)-2,6-diazaspiro[3.3]heptan-2-yl)pyridin-3-yl)-1,4-dihydro-2H-benzo[d][1,3]oxazin-2-one]
- hsF (human CYP11B1): > 1279x

Molecule: CCC(=O)NC1CCCc2c(-c3ccc4nc(OC)ccc4c3)cncc21 (centres unmarked) [Example 14-A]
- EC50 (human CYP11B2): 24 nM

Molecule: CCS(=O)(=O)N1CC(Oc2cncc(-c3ccc4nc(OC)ccc4c3)c2)C1 [Example 22, 6-(5-((1-(ethylsulfonyl)azetidin-3-yl)oxy)pyridin-3-yl)-2-methoxyquinoline]
- EC50 (human CYP11B2): 5 nM

Molecule: COc1ccc2cc(-c3cncc4c3CCCC4NC(C)=O)ccc2n1 (centres unmarked) [Example 24-A]
- EC50 (human CYP11B2): 16 nM

Molecule: CN1C(=O)OCc2cc(-c3cncc(C4=CCN(S(=O)(=O)C5CC5)CC4)c3)ccc21 [Example 41, 6-(1'-(cyclopropylsulfonyl)-1',2',3',6'-tetrahydro-[3,4'-bipyridine]-5-yl)-1-methyl-1,4-dihydro-2H-benzo[d][1,3]oxazin-2-one]
- hsF (human CYP11B1): 394x

Molecule: CC(=O)N[C@@H]1CCCc2c(-c3cnc4c(c3)CCC(=O)N4C)cncc21 [Example 59, (R)-N-(4-(8-methyl-7-carbonyl-5,6,7,8-tetrahydro-1,8-diazanaphthalen-3-yl)-5,6,7,8-tetrahydroisoquinolin-8-yl)acetamide]
- hsF (human CYP11B1): > 388x

Molecule: CCC(=O)N[C@H]1c2cncc(-c3ccc4c(c3)sc(=O)n4C)c2C2CC21 (stereo partly drawn) [Example 66-P2, N-((6R)-4-(3-methyl-2-oxo-2,3-dihydrobenzo[d]thiazol-6-yl)-4b,5,5a,6-tetrahydrocyclopropyl[3,4]cyclopenta[1,2-c]pyridin-6-yl)propanamide]
- hsF (human CYP11B1): > 1471x

Molecule: Cn1cc(C(=O)N2CC3(C2)CN(c2cncc(-c4ccc5c(c4)sc(=O)n5C)c2)C3)cn1 [Example 67, 3-methyl-6-(5-(6-(1-methyl-1H-pyrazole-4-carbonyl)-2,6-diazaspiro[3.3]heptan-2-yl)pyridin-3-yl)benzo[d]thiazol-2(3H)-one]
- AUC(0-inf) [1]: 31400 ng·h/mL
- AUC(0-t) [1]: 31400 ng·h/mL
- Cmax [1]: 4910 ng/mL
- Tmax [1]: 4 h
- half-life [1]: 2 h
- MRT inf [1]: 3.9 h
- hsF (human CYP11B1): > 485x

Continued, values first:

- hsF (human CYP11B1): 585x
Molecule: Cn1cc(C(=O)N2CC3(C2)CN(c2cncc(-c4ccc5c(ccc(=O)n5C)c4)c2)C3)cn1 [Example 69, 1-methyl-6-(5-(6-(1-methyl-1H-pyrazole-4-carbonyl)-2,6-diazaspiro[3.3]heptan-2-yl)pyridin-3-yl)quinolin-2(1H)-one]

- hsF (human CYP11B1): 371x
Molecule: CN(c1cncc(-c2ccc3c(ccc(=O)n3C)c2)c1)C1CN(C(=O)c2cnn(C)c2)C1 [Example 74, 1-methyl-6-(5-(methyl(1-(1-methyl-1H-pyrazole-4-carbonyl)azetidin-3-yl)amino)pyridin-3-yl)quinolin-2(1)-one]

- hsF (human CYP11B1): > 16666x
Molecule: CN1C(=O)C2CC2c2cc(-c3cncc(N4CC5(CN(C(=O)c6cnn(C)c6)C5)C4)c3)ccc21 (centres unmarked) [Example 75, 3-methyl-6-(5-(6-(1-methyl-1H-pyrazole-4-carbonyl)-2,6-diazaspiro[3.3]heptan-2-yl)pyridin-3-yl)-1,1a,3,7b-tetrahydro-2H-cyclopropa[c]quinolin-2-one]

- hsF (human CYP11B1): 2014x
Molecule: Cn1cc(C(=O)N2CC(Oc3cncc(-c4ccc5c(ccc(=O)n5C)c4)c3)C2)cn1 [Example 98, 1-methyl-6-(5-((1-(1-methyl-1H-pyrazole-4-carbonyl)azetidin-3-yl)oxy)pyridin-3-yl)quinolin-2(1H)-one]

- hsF (human CYP11B1): > 3509x
Molecule: Cn1cc(C(=O)N2CC(Oc3cncc(-c4ccc5c(c4)sc(=O)n5C)n3)C2)cn1 [Example 99, 3-methyl-6-(6-((1-(1-methyl-1H-pyrazole-4-carbonyl)azetidin-3-yl)oxy)pyrazin-2-yl)benzo[d]thiazol-2(3H)-one]

- AUC(0-inf) ([1]; in vivo): 66500 ng·h/mL
- AUC(0-t) ([1]; in vivo): 60400 ng·h/mL
- Cmax ([1]; in vivo): 6040 ng/mL
- Tmax ([1]; in vivo): 4 h
- half-life ([1]; in vivo): 7 h
- MRT inf ([1]; in vivo): 9.6 h
- hsF (human CYP11B1): 1372x
Molecule: Cn1c(=O)sc2cc(-c3cncc(N4CC5(CN(C(=O)C6(C#N)CC6)C5)C4)c3)ccc21 [Example 105, 1-(6-(5-(3-methyl-2-carbonyl-2,3-dihydrobenzo[d]thiazol-6-yl)pyridin-3-yl)-2,6-diazaspiro[3.3]heptane-2-carbonyl)cyclopropane-1-carbonitrile]

- hsF (human CYP11B1): 3103x
Molecule: Cn1c(=O)sc2cc(-c3cncc(N4CC5(CN(C(=O)C6(C#N)CC6)C5)C4)n3)ccc21 [Example 106, 1-(6-(6-(3-methyl-2-carbonyl-2,3-dihydrobenzo[d]thiazol-6-yl)pyrazin-2-yl)-2,6-diazaspiro[3.3]heptane-2-carbonyl)cyclopropane-1-carbonitrile]
